Data: patent US20190134000A1, “COMPOUNDS TO PROMOTE NORMAL PROCESSING OF APP” (Buck Institute for Research on Aging, priority 2016, published 2019)
≈ marks a conversion by molar mass, not a printed value. Entries after “also recorded” stand apart in the source; their conditions may differ. Like-named read-outs stand apart in the source and are kept apart here.

Key:
[1] = tested on: sAPPα in SH-SY5Y cells; assay: Primary screen, effect on sAPPα in SH-SY5Y cells (AlphaLISA); assay type: cell-based, human
Description: (§1) Compound C41 was initially identified by screening a library of compounds in a series of steps. First compounds were screened in a primary screen to determine the effect on sAPPα in SH-SYSY cells (see, e.g., FIG. 4). Compounds that elicited an increase in sAPPα of at least 10% were subjected to a secondary screen in CHO-7W cells for their effect on sAPPα and Aβ (see, e.g., FIG. 5).

[2] = biological target: α7 (Homo sapiens, UniProt P36544); assay: Target binding α7
[3] = biological target: T1, 5-HT3 (Homo sapiens, UniProt P46098); assay: Target binding 5-HT3; details: target binding
T1 sequence (P46098 24-478): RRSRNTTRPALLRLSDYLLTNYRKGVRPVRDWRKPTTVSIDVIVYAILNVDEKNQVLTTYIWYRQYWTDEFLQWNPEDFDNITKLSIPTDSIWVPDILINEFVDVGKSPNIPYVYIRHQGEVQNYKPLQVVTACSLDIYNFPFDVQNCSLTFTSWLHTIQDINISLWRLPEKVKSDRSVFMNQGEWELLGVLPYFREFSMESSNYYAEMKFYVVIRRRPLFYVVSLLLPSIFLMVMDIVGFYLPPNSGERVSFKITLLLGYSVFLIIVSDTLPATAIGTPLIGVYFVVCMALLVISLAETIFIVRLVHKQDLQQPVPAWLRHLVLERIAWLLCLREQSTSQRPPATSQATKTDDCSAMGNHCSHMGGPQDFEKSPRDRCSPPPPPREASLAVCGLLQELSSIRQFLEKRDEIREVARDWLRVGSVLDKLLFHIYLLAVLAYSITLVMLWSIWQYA

[4] = biological target: APP (Homo sapiens, UniProt P05067); assay: Target binding APP
[5] = tested on: sAPPα, Aβ1-42 in CHO-7W cells; assay: Secondary screen, sAPPα and Aβ in CHO-7W cells; assay type: cell-based
Description: as §1

[6] = tested on: AD model mouse; assay: In vivo study of C41 and F03 in an AD model mouse
Description: Panel A: Novel object preference; Panel B: Novel location preference; Panel C: sAPPα.
Panel A: sAPPβ; Panel B: the sAPPα/sAPPβ ratio.
Compounds meeting the initial screening criteria were then subjected to in vivo testing.

[7] = in vitro
Protocol: The second batch of C41 was tested for plasma protein binding, ADME-tox screening (microsomal intrinsic clearance), and ADME-tox screening (CYP inhibition screen). PK in rats was determined to determine a dose of non-GLP Pharm-Tox screening. Additionally, acute toxicity in rats (pre-subchronic toxicity) and non-GLP subchronic toxicity was determined.

[8] = biological target: CYP3A4 (Homo sapiens, UniProt P08684); assay: CYP inhibition screen CYP3A4; assay type: in vitro ADME; details: human
[9] = biological target: CYP2C9 (Homo sapiens, UniProt P11712); assay: CYP inhibition screen CYP2C9; assay type: in vitro ADME; details: human, read-out: CYP2C9 inhibition
[10] = biological target: CYP2D6 (Homo sapiens, UniProt P10635); assay: CYP inhibition screen CYP2D6; assay type: in vitro ADME; details: human, read-out: CYP2D6 inhibition
[11] = biological target: CYP2C19 (Homo sapiens, UniProt P33261); assay: CYP inhibition screen CYP2C19; assay type: in vitro ADME; details: human, read-out: CYP2C19 inhibition
[12] = biological target: T2, CYP1A2 (Homo sapiens, UniProt P05177); assay: CYP inhibition screen CYP1A2; assay type: in vitro ADME; details: human, read-out: CYP1A2 inhibition
T2 sequence (P05177 1-516): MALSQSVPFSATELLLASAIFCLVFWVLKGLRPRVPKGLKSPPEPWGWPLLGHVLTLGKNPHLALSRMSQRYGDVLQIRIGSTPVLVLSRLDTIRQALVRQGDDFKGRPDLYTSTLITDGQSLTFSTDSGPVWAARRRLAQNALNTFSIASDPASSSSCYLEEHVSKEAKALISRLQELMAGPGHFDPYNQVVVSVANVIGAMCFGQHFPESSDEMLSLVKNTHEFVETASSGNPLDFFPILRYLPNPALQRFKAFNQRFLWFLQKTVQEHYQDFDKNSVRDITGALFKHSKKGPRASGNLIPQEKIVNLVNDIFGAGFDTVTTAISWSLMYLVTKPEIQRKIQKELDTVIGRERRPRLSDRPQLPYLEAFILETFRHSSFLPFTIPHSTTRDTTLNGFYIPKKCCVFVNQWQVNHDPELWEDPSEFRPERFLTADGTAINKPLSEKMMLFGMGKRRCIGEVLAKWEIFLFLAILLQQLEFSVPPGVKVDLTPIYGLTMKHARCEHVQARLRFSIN

[13] = tested on: AD mouse model; assay: Synaptic load, synaptophysin labeling of hippocampus; assay type: in vivo
Protocol: FIG. 16 illustrates mechanistic confirmation studies for determination of synaptic load.
Mechanistic confirmation studies for determination of synaptic load were performed using antibody-labeling of synaptophysin with a green fluorescent tag. […] The improvements in NLR and NOR may be correlated to the restoration of synaptic load, increases in sAPPα or the sAPPα/sAPPβ ratio; increases in the sAPPα/Aβ1-42 ratio; decreases in the p-tau/tau ratio, and/or decreases in APPneo (c-terminal cleavage).

[14] = reported; cited from earlier work
[15] = Solubility in water
[16] = dog, microsomes, NADPH-Dependent CLint
[17] = dog, microsomes, NADPH-Free CLint
[18] = rat, microsomes, NADPH-Dependent CLint
[19] = rat, microsomes, NADPH-Free CLint
[20] = midazolam, read-out: CYP3A4 midazolam inhibition
[21] = testosterone, read-out: CYP3A4 testosterone inhibition

Chain of CYP3A4 (P08684 whole entry): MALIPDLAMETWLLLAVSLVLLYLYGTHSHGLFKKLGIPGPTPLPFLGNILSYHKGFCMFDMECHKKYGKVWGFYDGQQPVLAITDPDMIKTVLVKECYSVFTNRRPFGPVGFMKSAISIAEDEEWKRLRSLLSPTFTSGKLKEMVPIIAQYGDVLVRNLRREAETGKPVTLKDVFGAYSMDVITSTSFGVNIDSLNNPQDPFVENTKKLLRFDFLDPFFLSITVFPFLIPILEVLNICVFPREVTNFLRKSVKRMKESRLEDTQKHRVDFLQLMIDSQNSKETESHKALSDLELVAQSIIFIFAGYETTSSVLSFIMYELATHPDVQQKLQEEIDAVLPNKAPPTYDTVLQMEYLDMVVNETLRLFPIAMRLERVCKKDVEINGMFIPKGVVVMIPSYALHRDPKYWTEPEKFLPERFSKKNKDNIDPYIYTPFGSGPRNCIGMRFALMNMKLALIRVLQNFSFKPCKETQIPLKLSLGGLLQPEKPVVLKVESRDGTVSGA
Chain of CYP2C9 (P11712 whole entry): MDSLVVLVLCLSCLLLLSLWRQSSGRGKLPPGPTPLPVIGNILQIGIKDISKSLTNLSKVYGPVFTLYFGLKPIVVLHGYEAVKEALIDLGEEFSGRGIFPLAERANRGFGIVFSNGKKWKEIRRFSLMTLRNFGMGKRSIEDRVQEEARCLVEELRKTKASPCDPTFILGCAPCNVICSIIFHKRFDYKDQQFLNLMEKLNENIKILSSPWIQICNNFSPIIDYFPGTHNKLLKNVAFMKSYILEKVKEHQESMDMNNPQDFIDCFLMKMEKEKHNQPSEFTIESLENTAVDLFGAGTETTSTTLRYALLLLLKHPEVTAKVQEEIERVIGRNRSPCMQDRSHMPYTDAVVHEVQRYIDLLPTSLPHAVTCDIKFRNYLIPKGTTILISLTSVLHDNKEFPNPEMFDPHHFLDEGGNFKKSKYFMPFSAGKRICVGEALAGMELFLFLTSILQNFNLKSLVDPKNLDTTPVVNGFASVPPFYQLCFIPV
Chain of CYP2D6 (P10635 whole entry): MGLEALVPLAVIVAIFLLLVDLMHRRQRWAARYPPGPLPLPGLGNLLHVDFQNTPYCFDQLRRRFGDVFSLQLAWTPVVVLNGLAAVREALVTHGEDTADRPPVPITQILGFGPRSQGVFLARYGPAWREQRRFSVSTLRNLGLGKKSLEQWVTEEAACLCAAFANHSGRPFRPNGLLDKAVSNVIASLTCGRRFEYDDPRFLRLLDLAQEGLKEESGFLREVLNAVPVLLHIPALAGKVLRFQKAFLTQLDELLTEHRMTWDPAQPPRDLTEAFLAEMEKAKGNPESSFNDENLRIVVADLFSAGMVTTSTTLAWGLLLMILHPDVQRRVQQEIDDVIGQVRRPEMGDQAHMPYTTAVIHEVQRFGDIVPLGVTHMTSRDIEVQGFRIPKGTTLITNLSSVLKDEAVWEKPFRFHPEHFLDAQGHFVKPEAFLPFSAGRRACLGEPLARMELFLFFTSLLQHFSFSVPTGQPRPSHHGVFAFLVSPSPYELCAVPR
Chain of CYP2C19 (P33261 whole entry): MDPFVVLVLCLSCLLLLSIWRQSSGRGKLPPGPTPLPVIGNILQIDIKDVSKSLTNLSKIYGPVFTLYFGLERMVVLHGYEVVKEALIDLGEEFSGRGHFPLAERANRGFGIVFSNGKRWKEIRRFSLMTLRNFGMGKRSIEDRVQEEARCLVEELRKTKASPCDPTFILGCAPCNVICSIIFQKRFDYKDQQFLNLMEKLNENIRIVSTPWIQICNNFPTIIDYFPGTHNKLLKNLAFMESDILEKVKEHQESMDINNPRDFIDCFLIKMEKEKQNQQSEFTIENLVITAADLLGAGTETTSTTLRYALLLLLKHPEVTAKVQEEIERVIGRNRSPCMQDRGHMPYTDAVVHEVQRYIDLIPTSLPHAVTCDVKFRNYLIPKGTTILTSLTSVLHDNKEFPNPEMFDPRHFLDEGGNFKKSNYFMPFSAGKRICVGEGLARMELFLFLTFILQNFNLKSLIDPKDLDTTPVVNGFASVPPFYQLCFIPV
Chain of α7 (P36544 23-502): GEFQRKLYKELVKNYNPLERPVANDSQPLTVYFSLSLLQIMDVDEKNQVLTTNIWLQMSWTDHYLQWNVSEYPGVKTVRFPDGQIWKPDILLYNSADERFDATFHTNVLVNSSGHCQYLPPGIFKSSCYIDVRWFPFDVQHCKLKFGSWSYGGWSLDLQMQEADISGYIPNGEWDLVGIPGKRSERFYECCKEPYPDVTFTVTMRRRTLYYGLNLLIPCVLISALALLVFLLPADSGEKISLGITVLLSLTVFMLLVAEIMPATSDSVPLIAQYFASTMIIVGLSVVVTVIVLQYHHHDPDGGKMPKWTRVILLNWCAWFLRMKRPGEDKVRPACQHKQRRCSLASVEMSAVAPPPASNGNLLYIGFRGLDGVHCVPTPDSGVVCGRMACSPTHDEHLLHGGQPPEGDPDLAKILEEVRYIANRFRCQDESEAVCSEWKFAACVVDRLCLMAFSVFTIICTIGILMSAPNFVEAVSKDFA
Chain of APP (P05067 18-770, species assumed): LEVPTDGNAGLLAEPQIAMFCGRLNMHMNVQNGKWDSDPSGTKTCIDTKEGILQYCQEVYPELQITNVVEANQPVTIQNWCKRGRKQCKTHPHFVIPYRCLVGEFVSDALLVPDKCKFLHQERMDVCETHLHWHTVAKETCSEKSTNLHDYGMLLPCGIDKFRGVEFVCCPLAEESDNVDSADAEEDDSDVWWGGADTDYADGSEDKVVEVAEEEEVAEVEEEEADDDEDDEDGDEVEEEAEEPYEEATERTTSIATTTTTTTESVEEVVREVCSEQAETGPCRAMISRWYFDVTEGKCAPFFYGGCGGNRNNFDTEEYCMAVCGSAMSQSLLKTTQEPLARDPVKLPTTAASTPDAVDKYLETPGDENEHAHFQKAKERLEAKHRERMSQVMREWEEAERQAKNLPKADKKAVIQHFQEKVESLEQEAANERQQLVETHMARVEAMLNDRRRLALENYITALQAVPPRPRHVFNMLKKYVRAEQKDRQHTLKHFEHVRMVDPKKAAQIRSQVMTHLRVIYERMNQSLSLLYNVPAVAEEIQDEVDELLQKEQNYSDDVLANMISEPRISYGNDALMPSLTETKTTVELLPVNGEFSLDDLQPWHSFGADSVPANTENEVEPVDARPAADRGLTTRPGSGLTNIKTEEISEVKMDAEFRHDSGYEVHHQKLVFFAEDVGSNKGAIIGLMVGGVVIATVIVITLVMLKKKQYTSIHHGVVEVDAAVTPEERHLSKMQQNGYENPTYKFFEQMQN

**Q.** With `CN1C2CC[C@H]1C[C@@H](OC(=O)c1c[nH]c3cc(F)ccc13)C2.Cl` [C41 HCl, (1R,3R,5S)-8-methyl-8-azabicyclo[3.2.1]octan-3-yl 6-fluoro-1H-indole-3-carboxylate hydrochloride] as the compound, how does the “effect on sAPPα in SH-SY5Y cells” value ([1]; 1 μm, 24 hours) read?
**A.** increase sAPPα similar to C41 (first batch) and to F03

**Q.** With `CN1[C@@H]2CC[C@H]1C[C@@H](OC(=O)c1c[nH]c3ccccc13)C2` [Compound F03, tropisetron, reference compound] as the compound, how does the “Target α7” value [2] read?
**A.** 450 nM

**Q.** What about the “Target 5-HT3” value [3] of the same compound?
**A.** 3 nM

**Q.** What about the “Target APP” value [4] of the same compound?
**A.** 1 to 10 µM

**Q.** What about the “Primary Screen (SH-SY5Y) sAPPα” value ([1]; ↑ increase) of the same compound?
**A.** ↑>10%

**Q.** What about the “Secondary Screen (CHO-7W) sAPPα” value ([5]; ↑ increase) of the same compound?
**A.** ↑>10%

**Q.** And the “Secondary Screen (CHO-7W) sAppα/Aβ” value ([5]; ↑ increase of ratio)?
**A.** ↑>30%

**Q.** What about the “Secondary Screen (CHO-7W) Aβ1-42” value ([5]; ↓ decrease) of the same compound?
**A.** ↓>10%

**Q.** What about the “Aβ40/42 ratio in vivo” value [6] of the same compound?
**A.** not changed

**Q.** And the sAPPα in vivo [6]?
**A.** increased significantly

**Q.** What about the “sAPPα/Aβ1-42 ratio in vivo” value [6] of the same compound?
**A.** not increased

**Q.** What about the microsomal CLint at 1 μM [7, 16] of the same compound?
**A.** 43.5 µL/min/mg

**Q.** What about the half-life at 1 μM ([7]; dog, microsomes, NADPH-Dependent T1/2) of the same compound?
**A.** 0.885 h

**Q.** What about the microsomal CLint at 1 μM [7, 17] of the same compound?
**A.** < 9.6 µL/min/mg

**Q.** What about the half-life at 1 μM ([7]; dog, microsomes, NADPH-Free T1/2) of the same compound?
**A.** > 4 h

**Q.** And the half-life at 1 μM ([7]; human, microsomes)?
**A.** > 4 h

**Q.** What about the microsomal CLint at 1 μM ([7]; human, microsomes) of the same compound?
**A.** < 9.6 µL/min/mg

**Q.** And the “NADPH-Free CLint” value ([7]; human, microsomes, 1 μM)?
**A.** <9.6 µL/min/mg

**Q.** What about the “NADPH-Free T1/2” value ([7]; human, microsomes, 1 μM) of the same compound?
**A.** >4 h

**Q.** And the microsomal CLint at 1 μM [7, 18]?
**A.** 367 µL/min/mg

**Q.** And the half-life at 1 μM ([7]; rat, microsomes, NADPH-Dependent T1/2)?
**A.** 0.105 h

**Q.** What about the microsomal CLint at 1 μM [7, 19] of the same compound?
**A.** < 9.6 µL/min/mg

**Q.** What about the half-life at 1 μM ([7]; rat, microsomes, NADPH-Free T1/2) of the same compound?
**A.** > 4 h

**Q.** And the inhibition at 10 µM [8, 20]?
**A.** 0%

**Q.** And the inhibition at 10 µM [8, 21]?
**A.** 0.63%

**Q.** What about the inhibition at 30 µM [8, 20] of the same compound?
**A.** 6.6%

**Q.** And the inhibition at 30 µM [8, 21]?
**A.** 10.5%

**Q.** What about the inhibition at 10 µM ([9]; 10 μM) of the same compound?
**A.** 15.9%

**Q.** What about the inhibition at 30 µM ([9]; 30 μM) of the same compound?
**A.** 23.3%

**Q.** What about the inhibition at 10 µM ([10]; 10 μM) of the same compound?
**A.** 17.4%

**Q.** What about the inhibition at 30 µM ([10]; 30 μM) of the same compound?
**A.** 38%

**Q.** What about the inhibition at 10 µM ([11]; 10 μM) of the same compound?
**A.** 6.4%

**Q.** And the inhibition at 30 µM ([11]; 30 μM)?
**A.** 0%

**Q.** And the inhibition at 10 µM ([12]; 10 μM)?
**A.** 1%

**Q.** What about the inhibition at 30 µM ([12]; 30 μM) of the same compound?
**A.** 1%

**Q.** And the “synaptic load / synaptic density in hippocampus” value [13]?
**A.** restore synaptic density; also recorded: restored synaptic load

**Q.** And the Plasma binding [14]?
**A.** 70%

**Q.** What about the solubility [15] of the same compound?
**A.** 100 mM (≈ 28.4 mg/mL)

**Q.** For `CC(C)NCC(O)COc1cccc2ccccc12` (centres unmarked) [propranolol, reference compound], which “Mean Plasma Fraction Bound” value ([7]; human, plasma) is on record?
**A.** 81.6%

**Q.** And the fraction unbound ([7]; human, plasma)?
**A.** 0.184

**Q.** What does the source list for `CC(=O)CC(c1ccccc1)c1c(O)c2ccccc2oc1=O` (centres unmarked) [warfarin]?
**A.** microsomal CLint at 1 μM [7, 16]: < 9.6 µL/min/mg; microsomal CLint at 1 μM [7, 17]: < 9.6 µL/min/mg; recovery ([7]; human): 99.7%; microsomal CLint at 1 μM ([7]; human, microsomes): < 9.6 µL/min/mg; NADPH-Free CLint ([7]; human, microsomes, 1 μM): <9.6 µL/min/mg; microsomal CLint at 1 μM [7, 18]: < 9.6 µL/min/mg; microsomal CLint at 1 μM [7, 19]: < 9.6 µL/min/mg
